Measured values from the supplement of paper PMC8617591.

Key:
[1] = test system: Mycobacterium tuberculosis Erdman (autoluminescent); test: total FIC50 (Loewe) at 50% inhibition, three-drug combination (log2); higher = more antagonistic
Method: (§1)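 DiaMOND equipotent three-drug combination dose responses (10 doses, 1.5- or 2-fold spacing, centred on IC90) against autoluminescent M. tuberculosis Erdman in 8 in vitro models. Read-out is OD600, or luminescence for the intracellular and dormancy models, normalised to untreated wells. Hill-fit Einf, AUC25 and GRinf are potency metrics; FIC50 and FIC90 are total Loewe fractional inhibitory concentrations as log2 (negative = synergy).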

[2] = test system: Mycobacterium tuberculosis Erdman (autoluminescent); test: total FIC90 (Loewe) at 90% inhibition, three-drug combination (log2); higher = more antagonistic
Method: as §1

[3] = test system: Mycobacterium tuberculosis Erdman (autoluminescent); test: Einf, fitted maximum growth inhibition of three-drug combination (fraction); higher = stronger maximal inhibition
Method: as §1

[4] = test system: Mycobacterium tuberculosis Erdman (autoluminescent); test: AUC25, normalised area under dose response up to IC25 (three-drug combination) (fraction (0-1)); higher = more potent at low dose
Method: as §1

[5] = test system: Mycobacterium tuberculosis Erdman (autoluminescent); test: GRinf, maximum normalised growth rate inhibition (three-drug combination) (unitless (-1 to 1)); higher = less effect (negative = killing)
Method: as §1

COc1nc2ccc(Br)cc2cc1[C@@H](c1ccccc1)[C@@](O)(CCN(C)C)c1cccc2ccccc12 [bedaquiline] + CC(C)/N=c1\cc2n(-c3ccc(Cl)cc3)c3ccccc3nc-2cc1Nc1ccc(Cl)cc1 [clofazimine] + CC[C@@H](CO)NCCN[C@@H](CC)CO [ethambutol]
Conditions | AUC25, [4] | Einf, [3] | GRinf, [5] | total FIC50, [1] | total FIC90, [2]
in vitro model: acidic pH 5.7, time point: constant (~7 days, model-specific) | 0.0844 | 0.852 | -0.216 | 0.516 | –
in vitro model: acidic pH 5.7, time point: terminal (~4-5 doublings, model-specific) | 0.0687 | 0.969 | -0.273 | 0.534 | 0.129
in vitro model: intracellular J774, time point: constant = terminal | – | 0.992 | -0.72 | – | -0.364

Conditions | AUC25, [4] | Einf, [3] | GRinf, [5] | total FIC50, [1] | total FIC90, [2]
in vitro model: butyrate, time point: constant (~7 days, model-specific) | 0.0618 | 0.945 | -0.0931 | 0.078 | –
in vitro model: butyrate, time point: terminal (~4-5 doublings, model-specific) | 0.0476 | 0.976 | -0.104 | 0.111 | -0.667
in vitro model: cholesterol 0.05 mM, time point: constant (~7 days, model-specific) | 0.0892 | 0.762 | -0.109 | 0.0426 | –
in vitro model: cholesterol 0.05 mM, time point: terminal (~4-5 doublings, model-specific) | 0.117 | 0.937 | -0.32 | 0.424 | –
in vitro model: cholesterol-high 0.2 mM, time point: constant (~7 days, model-specific) | 0.0568 | 0.996 | -0.788 | 0.329 | –
in vitro model: cholesterol-high 0.2 mM, time point: terminal (~4-5 doublings, model-specific) | 0.0708 | 1 | -0.736 | 0.543 | 0.542
in vitro model: dormancy (butyrate + nitrate, low O2), time point: constant (~7 days, model-specific) | 0.102 | 0.82 | 0.429 | 0.788 | –
in vitro model: dormancy (butyrate + nitrate, low O2), time point: terminal (~4-5 doublings, model-specific) | 0.0994 | 0.991 | -0.239 | 0.238 | 0.0433
in vitro model: standard 7H9 glycerol, time point: constant = terminal | 0.0939 | 0.965 | -0.0889 | -0.254 | –
in vitro model: valerate, time point: constant (~7 days, model-specific) | 0.107 | 0.947 | -0.0899 | 0.469 | –
in vitro model: valerate, time point: terminal (~4-5 doublings, model-specific) | 0.0804 | 0.962 | -0.0795 | 0.16 | -0.225

COc1nc2ccc(Br)cc2cc1[C@@H](c1ccccc1)[C@@](O)(CCN(C)C)c1cccc2ccccc12 [bedaquiline] + CC(C)/N=c1\cc2n(-c3ccc(Cl)cc3)c3ccccc3nc-2cc1Nc1ccc(Cl)cc1 [clofazimine] + CO[C@H]1/C=C/O[C@@]2(C)Oc3c(C)c(O)c4c(O)c(c(/C=N/N5CCN(C6CCCC6)CC5)c(O)c4c3C2=O)NC(=O)/C(C)=C\C=C\[C@H](C)[C@H](O)[C@@H](C)[C@@H](O)[C@@H](C)[C@H](OC(C)=O)[C@@H]1C [rifapentine]
Conditions | AUC25, [4] | Einf, [3] | GRinf, [5] | total FIC50, [1] | total FIC90, [2]
in vitro model: acidic pH 5.7, time point: constant (~7 days, model-specific) | 0.0909 | 0.924 | -0.309 | 0.793 | –
in vitro model: acidic pH 5.7, time point: terminal (~4-5 doublings, model-specific) | 0.0906 | 0.997 | -0.284 | 0.66 | 0.55
in vitro model: intracellular J774, time point: constant = terminal | – | 0.951 | -0.199 | – | -0.0198

Conditions | AUC25, [4] | Einf, [3] | GRinf, [5] | total FIC50, [1] | total FIC90, [2]
in vitro model: butyrate, time point: constant (~7 days, model-specific) | 0.0667 | 0.948 | -0.116 | 0.174 | -0.813
in vitro model: butyrate, time point: terminal (~4-5 doublings, model-specific) | 0.0586 | 0.983 | -0.124 | 0.264 | -0.221
in vitro model: cholesterol 0.05 mM, time point: constant (~7 days, model-specific) | 0.0889 | 0.716 | -0.179 | -0.467 | –
in vitro model: cholesterol 0.05 mM, time point: terminal (~4-5 doublings, model-specific) | 0.085 | 0.926 | -0.231 | 0.869 | -0.165
in vitro model: cholesterol-high 0.2 mM, time point: constant (~7 days, model-specific) | 0.0509 | 0.965 | -0.378 | -0.0878 | -0.883
in vitro model: cholesterol-high 0.2 mM, time point: terminal (~4-5 doublings, model-specific) | 0.0654 | 1 | -0.595 | 0.507 | -0.0793
in vitro model: dormancy (butyrate + nitrate, low O2), time point: constant (~7 days, model-specific) | 0.0857 | 0.937 | 0.218 | -0.0609 | -0.282
in vitro model: dormancy (butyrate + nitrate, low O2), time point: terminal (~4-5 doublings, model-specific) | 0.0766 | 0.997 | -0.206 | -0.242 | -0.206
in vitro model: standard 7H9 glycerol, time point: constant = terminal | 0.079 | 0.959 | -0.0819 | -0.0863 | -0.842
in vitro model: valerate, time point: constant (~7 days, model-specific) | 0.0956 | 0.895 | -0.0953 | 0.292 | –
in vitro model: valerate, time point: terminal (~4-5 doublings, model-specific) | 0.0686 | 0.95 | -0.0333 | 0.461 | 0.966

COc1nc2ccc(Br)cc2cc1[C@@H](c1ccccc1)[C@@](O)(CCN(C)C)c1cccc2ccccc12 [bedaquiline] + CC(C)/N=c1\cc2n(-c3ccc(Cl)cc3)c3ccccc3nc-2cc1Nc1ccc(Cl)cc1 [clofazimine] + CO[C@H]1/C=C/O[C@@]2(C)Oc3c(C)c(O)c4c(O)c(c(/C=N/N5CCN(C)CC5)c(O)c4c3C2=O)NC(=O)/C(C)=C\C=C\[C@H](C)[C@H](O)[C@@H](C)[C@@H](O)[C@@H](C)[C@H](OC(C)=O)[C@@H]1C [rifampicin]
Conditions | AUC25, [4] | Einf, [3] | GRinf, [5] | total FIC50, [1] | total FIC90, [2]
in vitro model: acidic pH 5.7, time point: constant (~7 days, model-specific) | 0.0895 | 0.926 | -0.41 | 0.927 | –
in vitro model: acidic pH 5.7, time point: terminal (~4-5 doublings, model-specific) | 0.0837 | 0.992 | -0.332 | 0.816 | 0.52
in vitro model: intracellular J774, time point: constant = terminal | – | 0.965 | -0.213 | – | 0.287

Conditions | AUC25, [4] | Einf, [3] | GRinf, [5] | total FIC50, [1] | total FIC90, [2]
in vitro model: butyrate, time point: constant (~7 days, model-specific) | 0.0821 | 0.954 | -0.113 | 0.164 | -0.692
in vitro model: butyrate, time point: terminal (~4-5 doublings, model-specific) | 0.0695 | 0.983 | -0.115 | 0.163 | -0.325
in vitro model: cholesterol 0.05 mM, time point: constant (~7 days, model-specific) | 0.0702 | 0.714 | -0.146 | -0.919 | –
in vitro model: cholesterol 0.05 mM, time point: terminal (~4-5 doublings, model-specific) | 0.0755 | 0.925 | -0.226 | 0.904 | -0.861
in vitro model: cholesterol-high 0.2 mM, time point: constant (~7 days, model-specific) | 0.0563 | 0.933 | -0.277 | -0.143 | -0.728
in vitro model: cholesterol-high 0.2 mM, time point: terminal (~4-5 doublings, model-specific) | 0.0498 | 0.999 | -0.582 | 0.757 | -0.216
in vitro model: dormancy (butyrate + nitrate, low O2), time point: constant (~7 days, model-specific) | 0.0659 | 0.906 | 0.222 | -0.0697 | -0.643
in vitro model: dormancy (butyrate + nitrate, low O2), time point: terminal (~4-5 doublings, model-specific) | 0.0651 | 0.994 | -0.191 | -0.41 | -0.344
in vitro model: standard 7H9 glycerol, time point: constant = terminal | 0.0883 | 0.959 | -0.1 | -0.172 | -1.01
in vitro model: valerate, time point: constant (~7 days, model-specific) | 0.0872 | 0.88 | -0.0295 | 0.776 | –
in vitro model: valerate, time point: terminal (~4-5 doublings, model-specific) | 0.0594 | 0.936 | -0.0101 | 0.627 | 0.54
